Reference: PMC9844952 (Molecular Imaging and Biology, 2023)
“And” between values parts separate entries of the source, which are not always exact repeats. Identical values can stand only once. Square brackets hold non-standard residues; d marks the D form. Peptide text beside a SMILES is read from it. * marks the point of attachment. NODAGA = O=C(O)CN1CCN(CC(=O)O)CCN(C(CCC(=O)*)C(=O)O)CC1; Tic = O=C(O)[C@@H]1Cc2ccccc2CN1

Assays:
HER2 and EGFRvIII = experiment: SNIPR-PET T cell imaging in dual xenografts; details: in vivo
UMRC3 cells = experiment: [18F]FGln uptake in UMRC3 cells; format: cell-based, human
[1] = test system: YUMM1.7 melanoma xenografts; experiment: BRAF/MEK inhibition in YUMM1.7 melanoma xenografts; format: in vivo, mice; details: for production of 13C-lactate from 13C-glucose: 24 h after treatment; for tumor growth vs control group: mouse, in vivo
myeloperoxidase (MPO) = experiment: D-mannose in transient MCAO stroke with heMAMP MRI; format: in vivo, C57BL/6J mice
K+ channels = experiment: first-in-human [18F]3F4AP brain PET; format: in vivo
aminopeptidase N (APN) = experiment: kinetic parameters of probes for APN; format: biochemical
HER2 = HER2 (Homo sapiens, UniProt P04626); experiment: 89Zr-trastuzumab PET in NCIN87 xenografts with metformin; format: in vivo, athymic nude mice
EGFR = EGFR (Homo sapiens, UniProt P00533); experiment: 89Zr-panitumumab PET in A431 xenografts with metformin; format: in vivo, athymic nude mice; details: acute metformin
ccRCC lung tumors = experiment: [18F]FGln PET/MRI of ccRCC lung tumors; design: species or system nude mice; details: mouse, in vivo
[2] = molecular target: Glucocorticoid receptor (GR) (Mus musculus, UniProt P06537); experiment: 18F-YJH08 biodistribution in mice; details: 30 min post injection, PC3 renal capsule tumors
[3] = tumor boron content by ICP-MS; format: in vivo, mice; details: 3h after intraperitoneal injection
PDGFR-β = format: in vivo, mouse; details: imatinib for 3 weeks
CMKLR1 = CMKLR1 (Mus musculus, UniProt P97468); experiment: 64Cu-NODAGA-CG34 PET/CT in bleomycin-induced lung injury; format: in vivo
[4] = as above; format: in vivo, mouse; details: mouse, lung, PET
PSMA = PSMA (Homo sapiens, UniProt Q04609); experiment: automated lesion detection on 68Ga PSMA PET; format: in vivo; details: 17 PSMA-positive lesions
[5] = SWIR ratiometric imaging of ICG clearance; details: mean
[6] = test system: dopaminergic (DA) neurons; experiment: 6-OHDA partial lesion rat model: rotation and DA neuron loss
CSF1R = CSF1R (Mus musculus, UniProt P09581); experiment: [18F]1 brain uptake in control and LPS-treated mice; format: in vivo
IDO1 = IDO1 (Mus musculus, UniProt P28776); experiment: small animal PET in B16F10 mouse models; format: in vivo
[7] = molecular target: deoxycytidine kinase (dCK) (Mus musculus, UniProt P43346); experiment: TRE-515 treatment of EAE mouse models of MS; format: in vivo
Disialoganglioside GD2 = experiment: Serial PET/CT of 89Zr-dinutuximab in B78 melanoma mice; format: in vivo, mouse
OX40 [8] = molecular target: T1, OX40 (Homo sapiens, UniProt P43489); experiment: [89Zr]huOX40mAb binding to primary human T cells; format: cell-based
T1 sequence (P43489 29-277): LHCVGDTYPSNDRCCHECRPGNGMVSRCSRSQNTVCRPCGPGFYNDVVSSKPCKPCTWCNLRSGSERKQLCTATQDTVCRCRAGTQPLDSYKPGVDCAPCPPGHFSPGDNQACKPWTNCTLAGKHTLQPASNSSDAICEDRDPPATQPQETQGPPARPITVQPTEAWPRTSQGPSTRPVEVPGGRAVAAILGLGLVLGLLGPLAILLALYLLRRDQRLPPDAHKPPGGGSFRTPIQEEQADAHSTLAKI

OX40 [9] = molecular target: T1, OX40; experiment: [89Zr]huOX40mAb PET in HEK293 tumor mice; format: in vivo, NSG mice; details: 72 hours p.i., PET ROI
OX40 [10] = molecular target: T1, OX40; experiment: [89Zr]huOX40mAb binding to OX40+ HEK293 cells; format: cell-based
[11] = 12 μg 6-OHDA into right striatum

Chain of deoxycytidine kinase (dCK) (P43346 whole entry): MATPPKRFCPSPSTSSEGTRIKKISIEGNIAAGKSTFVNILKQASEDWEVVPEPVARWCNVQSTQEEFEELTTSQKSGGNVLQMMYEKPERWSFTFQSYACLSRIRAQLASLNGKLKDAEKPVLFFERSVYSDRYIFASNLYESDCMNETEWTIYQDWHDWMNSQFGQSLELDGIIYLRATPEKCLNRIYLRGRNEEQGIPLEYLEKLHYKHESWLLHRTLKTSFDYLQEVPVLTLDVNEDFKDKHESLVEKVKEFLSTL
Chain of CSF1R (P09581 20-977): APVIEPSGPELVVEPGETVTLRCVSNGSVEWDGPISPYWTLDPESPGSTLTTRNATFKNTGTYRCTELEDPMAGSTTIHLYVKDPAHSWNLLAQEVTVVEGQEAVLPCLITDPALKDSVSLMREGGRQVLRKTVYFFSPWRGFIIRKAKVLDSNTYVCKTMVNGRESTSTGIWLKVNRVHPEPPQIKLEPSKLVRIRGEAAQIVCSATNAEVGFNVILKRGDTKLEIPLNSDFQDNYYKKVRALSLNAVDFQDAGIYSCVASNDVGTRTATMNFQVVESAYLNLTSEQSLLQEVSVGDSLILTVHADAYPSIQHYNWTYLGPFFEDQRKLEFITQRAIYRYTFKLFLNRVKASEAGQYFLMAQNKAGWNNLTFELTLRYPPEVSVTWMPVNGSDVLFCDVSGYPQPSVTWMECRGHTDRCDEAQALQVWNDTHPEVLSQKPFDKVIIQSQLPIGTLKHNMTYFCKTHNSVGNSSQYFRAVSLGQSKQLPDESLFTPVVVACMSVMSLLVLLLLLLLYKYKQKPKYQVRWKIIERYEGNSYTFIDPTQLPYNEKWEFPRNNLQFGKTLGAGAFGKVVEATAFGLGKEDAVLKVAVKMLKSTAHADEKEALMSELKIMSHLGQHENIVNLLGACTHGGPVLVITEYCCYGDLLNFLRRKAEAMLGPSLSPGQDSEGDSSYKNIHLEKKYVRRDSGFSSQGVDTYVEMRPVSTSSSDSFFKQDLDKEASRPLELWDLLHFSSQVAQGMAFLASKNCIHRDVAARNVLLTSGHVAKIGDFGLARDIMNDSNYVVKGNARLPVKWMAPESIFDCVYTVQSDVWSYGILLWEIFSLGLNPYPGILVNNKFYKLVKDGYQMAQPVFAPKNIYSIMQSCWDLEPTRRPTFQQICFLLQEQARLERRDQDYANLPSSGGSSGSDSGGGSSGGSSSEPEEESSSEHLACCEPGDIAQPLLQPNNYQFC
Chain of CMKLR1 (P97468 whole entry): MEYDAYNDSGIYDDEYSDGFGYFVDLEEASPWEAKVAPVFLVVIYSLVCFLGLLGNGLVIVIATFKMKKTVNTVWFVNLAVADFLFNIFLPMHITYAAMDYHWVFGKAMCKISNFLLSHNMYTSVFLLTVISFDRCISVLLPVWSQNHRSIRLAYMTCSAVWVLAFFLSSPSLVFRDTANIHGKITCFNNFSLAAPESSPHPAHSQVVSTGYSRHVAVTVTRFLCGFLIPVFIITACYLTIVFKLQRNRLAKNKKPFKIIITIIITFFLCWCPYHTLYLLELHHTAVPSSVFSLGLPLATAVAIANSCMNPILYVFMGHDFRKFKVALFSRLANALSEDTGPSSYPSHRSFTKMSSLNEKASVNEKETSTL
Chain of HER2 (P04626 23-1255): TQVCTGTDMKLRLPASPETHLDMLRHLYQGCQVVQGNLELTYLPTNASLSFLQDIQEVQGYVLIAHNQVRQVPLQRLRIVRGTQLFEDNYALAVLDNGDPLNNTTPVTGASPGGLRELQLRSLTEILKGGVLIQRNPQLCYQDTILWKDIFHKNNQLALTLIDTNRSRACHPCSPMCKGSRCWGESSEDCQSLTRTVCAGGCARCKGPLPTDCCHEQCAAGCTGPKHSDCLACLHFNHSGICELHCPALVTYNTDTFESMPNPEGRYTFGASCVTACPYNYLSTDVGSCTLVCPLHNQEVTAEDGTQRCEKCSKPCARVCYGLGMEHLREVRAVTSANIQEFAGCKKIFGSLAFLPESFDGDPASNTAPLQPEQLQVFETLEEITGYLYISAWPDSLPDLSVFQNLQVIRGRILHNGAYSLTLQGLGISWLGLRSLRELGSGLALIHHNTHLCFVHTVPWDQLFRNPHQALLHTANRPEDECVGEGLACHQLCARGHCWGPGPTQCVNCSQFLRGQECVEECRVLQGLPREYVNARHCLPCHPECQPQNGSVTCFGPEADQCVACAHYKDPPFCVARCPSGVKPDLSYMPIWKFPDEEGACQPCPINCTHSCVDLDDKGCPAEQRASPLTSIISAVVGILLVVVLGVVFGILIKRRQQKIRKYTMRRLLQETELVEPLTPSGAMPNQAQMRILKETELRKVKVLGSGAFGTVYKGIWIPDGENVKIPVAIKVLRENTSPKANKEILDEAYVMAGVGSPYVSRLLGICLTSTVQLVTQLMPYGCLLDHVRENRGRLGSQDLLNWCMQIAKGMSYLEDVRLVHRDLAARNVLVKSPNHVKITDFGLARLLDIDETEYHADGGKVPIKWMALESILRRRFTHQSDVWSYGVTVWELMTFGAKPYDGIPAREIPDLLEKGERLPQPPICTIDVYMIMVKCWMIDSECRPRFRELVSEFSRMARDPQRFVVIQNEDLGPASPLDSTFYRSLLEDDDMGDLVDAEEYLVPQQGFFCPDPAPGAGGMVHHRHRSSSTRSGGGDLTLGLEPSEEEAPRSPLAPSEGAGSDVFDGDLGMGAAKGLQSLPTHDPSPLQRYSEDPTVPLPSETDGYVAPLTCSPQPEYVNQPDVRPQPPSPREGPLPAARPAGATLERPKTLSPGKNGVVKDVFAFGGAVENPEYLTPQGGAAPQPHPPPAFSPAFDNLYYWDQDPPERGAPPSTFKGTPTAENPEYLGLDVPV
Chain of IDO1 (P28776 whole entry): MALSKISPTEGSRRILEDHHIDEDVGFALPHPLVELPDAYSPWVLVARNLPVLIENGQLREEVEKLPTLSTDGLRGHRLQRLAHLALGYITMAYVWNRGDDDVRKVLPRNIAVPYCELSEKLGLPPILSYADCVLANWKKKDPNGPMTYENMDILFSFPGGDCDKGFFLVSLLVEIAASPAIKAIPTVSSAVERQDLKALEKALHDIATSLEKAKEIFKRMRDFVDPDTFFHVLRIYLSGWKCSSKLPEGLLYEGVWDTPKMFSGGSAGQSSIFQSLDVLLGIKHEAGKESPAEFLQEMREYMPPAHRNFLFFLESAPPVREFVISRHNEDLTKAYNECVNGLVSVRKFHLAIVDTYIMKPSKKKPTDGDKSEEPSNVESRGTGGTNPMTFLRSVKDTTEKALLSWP
Chain of Glucocorticoid receptor (GR) (P06537 whole entry): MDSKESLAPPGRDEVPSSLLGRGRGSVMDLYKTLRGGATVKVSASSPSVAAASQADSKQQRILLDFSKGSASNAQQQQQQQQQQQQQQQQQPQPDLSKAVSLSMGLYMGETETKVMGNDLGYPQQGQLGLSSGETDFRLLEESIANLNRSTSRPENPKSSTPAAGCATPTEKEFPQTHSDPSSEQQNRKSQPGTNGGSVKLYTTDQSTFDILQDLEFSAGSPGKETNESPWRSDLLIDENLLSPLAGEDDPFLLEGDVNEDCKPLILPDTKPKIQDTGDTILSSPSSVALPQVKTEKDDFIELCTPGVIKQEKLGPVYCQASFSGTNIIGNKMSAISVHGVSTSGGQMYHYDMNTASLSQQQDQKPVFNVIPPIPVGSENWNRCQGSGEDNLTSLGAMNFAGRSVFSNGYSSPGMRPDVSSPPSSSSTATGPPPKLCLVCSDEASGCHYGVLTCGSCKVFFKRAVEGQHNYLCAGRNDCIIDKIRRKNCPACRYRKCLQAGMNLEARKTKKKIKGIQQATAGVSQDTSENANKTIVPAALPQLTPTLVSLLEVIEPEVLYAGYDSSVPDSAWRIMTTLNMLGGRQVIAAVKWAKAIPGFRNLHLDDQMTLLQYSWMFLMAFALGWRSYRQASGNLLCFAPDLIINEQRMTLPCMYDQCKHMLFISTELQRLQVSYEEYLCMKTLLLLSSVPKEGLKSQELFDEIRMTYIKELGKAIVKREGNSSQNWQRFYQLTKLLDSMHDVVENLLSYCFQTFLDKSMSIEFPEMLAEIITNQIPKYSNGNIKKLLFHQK
Chain of PSMA (Q04609 whole entry): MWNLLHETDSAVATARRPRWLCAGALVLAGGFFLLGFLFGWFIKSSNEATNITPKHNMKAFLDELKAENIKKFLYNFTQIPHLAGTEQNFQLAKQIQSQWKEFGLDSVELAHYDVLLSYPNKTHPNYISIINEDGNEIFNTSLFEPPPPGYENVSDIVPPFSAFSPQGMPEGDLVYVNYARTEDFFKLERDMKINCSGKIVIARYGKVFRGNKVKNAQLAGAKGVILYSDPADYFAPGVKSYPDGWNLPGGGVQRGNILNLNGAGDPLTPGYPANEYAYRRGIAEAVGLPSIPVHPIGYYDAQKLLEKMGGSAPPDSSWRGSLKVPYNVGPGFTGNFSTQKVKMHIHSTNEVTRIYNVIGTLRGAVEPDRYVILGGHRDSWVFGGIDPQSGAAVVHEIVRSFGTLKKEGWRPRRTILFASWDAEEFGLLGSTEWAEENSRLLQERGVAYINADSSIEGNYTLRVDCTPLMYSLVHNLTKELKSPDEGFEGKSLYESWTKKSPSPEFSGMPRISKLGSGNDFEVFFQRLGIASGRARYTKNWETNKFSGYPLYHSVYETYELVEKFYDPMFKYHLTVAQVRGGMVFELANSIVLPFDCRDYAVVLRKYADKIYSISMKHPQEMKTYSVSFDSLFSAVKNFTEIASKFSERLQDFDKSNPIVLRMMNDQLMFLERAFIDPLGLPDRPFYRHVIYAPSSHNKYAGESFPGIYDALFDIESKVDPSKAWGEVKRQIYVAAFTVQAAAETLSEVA

Molecule: Nc1nc2c(ncn2CCC(CO)C[18F])c(=O)[nH]1 (centres unmarked) [[18F]FHBG]
- signal in antigen-expressing tumors vs controls (HER2 and EGFRvIII): > 10 fold

Molecule: Cc1cccc(COc2ccccc2CN(CC[C@H](N)C(=O)O)Cc2ccccc2OCc2cccc(C)c2)c1 [V-9302]
- reduction of [18F]FGln cell uptake (UMRC3 cells; treatment with inhibitor): 20-50%

Molecule: CC(=O)Nc1cccc(-n2c(=O)n(C3CC3)c(=O)c3c(Nc4ccc(I)cc4F)n(C)c(=O)c(C)c32)c1 [trametinib]
- production of 13C-lactate from 13C-glucose [1]: significantly reduced
- tumor growth vs control group [1]: significantly delayed

Molecule: OC[C@H]1OC(O)[C@@H](O)[C@@H](O)[C@@H]1O (stereo partly drawn) [D-mannose]
- neurological deficit scores vs PBS (myeloperoxidase (MPO); 450mg/kg i.p. daily): improved neurological deficit scores
- heMAMP MRI enhancement in the infarcted area (myeloperoxidase (MPO); day 10, p=0.0027): decreased

Molecule: CCCS(=O)(=O)Nc1ccc(F)c(C(=O)c2c[nH]c3ncc(-c4ccc(Cl)cc4)cc23)c1F [vemurafenib]
- production of 13C-lactate from 13C-glucose [1]: significantly reduced
- tumor growth vs control group [1]: significantly delayed

Molecule: Nc1ccncc1[18F] [[18F]3F4AP]
- VT in gray matter (K+ channels; 1T model): 1.52-1.69 mL.cm^-3
- VT in white matter (K+ channels; 1T model): 1.22-1.29 mL.cm^-3
- VT in MS lesions (K+ channels; 2T model, two lesions of one MS subject): 2.24 mL. cm^-3 and 2.26 mL. cm^-3
- whole-blood to plasma ratio (K+ channels; after 15 min): 0.88 ± 0.01
- radioactivity corresponding to parent compound (K+ channels; plasma, 90 min post injection, Radio-HPLC, average): 31%
- peak SUV in gray matter (K+ channels; ~3 min, control subjects): 5-7 SUV
- peak SUV in white matter (K+ channels; ~3 min, control subjects): 2-4 SUV

Molecule: C[C@H](N)C(N)=O [Ala-NH2]
- Km (aminopeptidase N (APN)): 15.7 ± 4.4 mM

Molecule: CN(C)C(=N)N=C(N)N [metformin]
- lowering of [89Zr]Zr-DFO-Trastuzumab tumor uptake by daily metformin (HER2; 200 mg/kg ip for 11 consecutive days): 3.7 fold
- %ID/g of 89Zr-labeled Trastuzumab, control vs acute metformin tumors (HER2; 24 h post-injection, metformin 250 mg/kg oral): ~ 1.6
- uptake of 89Zr-labeled Panitumumab, control vs metformin-treated tumors (EGFR): ~ 1.8

Molecule: NC(=O)[C@H]([18F])C[C@H](N)C(=O)O [[18F]FGln, (2S,4R)-4-[18F]fluoroglutamine]
- cell uptake in UMRC3 vs HEK293 cells (UMRC3 cells): 2 fold
- reduction of tracer cell uptake by excess glutamine (UMRC3 cells; excess glutamine in the media): 60-90%
- retention in lung tumors vs muscle (ccRCC lung tumors): 2 fold
- retention in lung tumors vs normal lung tissue (ccRCC lung tumors): 1.5 fold

Molecule: COc1cccc2c1-c1ccc3c(c1C(Cc1ccc([18F])cc1)O2)C(C)=CC(C)(C)N3 (centres unmarked) [18F-YJH08]
- tumoral uptake [2]: ~ 2 % ID/g

Molecule: O=C(Cc1cccc(OC(F)(F)F)c1)Nc1ccc(CCCCc2nnc(NC(=O)Cc3ccccn3)s2)nn1 [CB-839]
- effect on [18F]FGln cellular uptake (UMRC3 cells): increased
- effect on [18F]FGln retention in lung tumors (ccRCC lung tumors): did not change significantly

Molecule: boronophenylalanine-fructose [BPA-Fr]
- boron content of the tumor [3]: around 42±13 ppm

Molecule: CC(=O)NCC1CN(c2ccc(N3CCSCC3)c([18F])c2)C(=O)O1 (centres unmarked) [[18F]sutezolid]
- brain penetration in TB meningitis (mouse, in vivo): penetrated the brain parenchyma
- penetration in lung lesions vs unaffected lung (pulmonary TB, P< 0.05): significantly lower penetration in the lung lesions

Molecule: Cc1ccc(NC(=O)c2ccc(CN3CCN(C)CC3)cc2)cc1Nc1nccc(-c2cccnc2)n1 [imatinib]
- accumulation of Cy7-BiPPB in mutant kidneys under treatment (PDGFR-β): decreased

Molecule: CC(C)C[C@H](NC(=O)[C@H](Cc1ccccc1)NC(=O)[C@@H](Cc1ccc(O)cc1)NC(=O)CCC(C(=O)O)N1CCN(CC(=O)O)CCN(CC(=O)O)CC1)C(=O)N1CCC[C@H]1C(=O)N[C@H](CO)C(=O)N[C@@H](CCC(N)=O)C(=O)N[C@@H](Cc1ccccc1)C(=O)N[C@H](C)C(=O)N1Cc2ccccc2C[C@H]1C(=O)N[C@@H](CO)C(=O)O (some centres unmarked) [64Cu-NODAGA-CG34, metal not drawn] ({NODAGA}-[dY]FLP[dS]QF[dA][Tic]S-OH; N-terminus and C-terminus assumed)
- uptake on co-injection of excess NODAGA-CG34 (CMKLR1; 100x molar excess non-radiolabeled): near-completely blocked
- lung %ID/gmax, 1 week after bleomycin (CMKLR1; PET): 4.04±0.87 %ID/g
- tissue uptake ([4]; lung %ID/gmax, 2 weeks): 3.35 ± 0.47 %ID/g
- tissue uptake ([4]; lung %ID/gmax, 4 weeks): 1.96 ± 0.19 %ID/g
- tissue uptake ([4]; lung %ID/gmax, baseline): 1.38 ± 0.1 %ID/g
- tissue uptake ([4]; lung %ID/gmean, 1 week after bleomycin): 2.47 ± 0.67 %ID/g
- tissue uptake ([4]; lung %ID/gmean, 2 weeks): 1.83 ± 0.3 %ID/g
- tissue uptake ([4]; lung %ID/gmean, 4 weeks): 1.03 ± 0.1 %ID/g
- tissue uptake ([4]; lung %ID/gmean, baseline): 0.7 ± 0.06 %ID/g

Molecule: O=C([O-])CN(CCN(CC(=O)[O-])Cc1cc(CCC(=O)NCCCCCC(=O)NCCCC[C@H](NC(=O)N[C@@H](CCC(=O)O)C(=O)O)C(=O)O)ccc1[O-])Cc1cc(CCC(=O)O)ccc1[O-].[68Ga+3].[OH3+] [68Ga PSMA]
- diagnostic sensitivity of automated lesion detection (PSMA): 100%

Molecule: CC1(C)C(/C=C/C=C/C=C/C=C2\N(CCCCS(=O)(=O)O)c3ccc4ccccc4c3C2(C)C)=[N+](CCCCS(=O)(=O)[O-])c2ccc3ccccc3c21 [ICG, indocyanine green]
- blood half-life, isoflurane ([5]; sd 0.28, n=4): 2.56 min
- blood half-life, awake ([5]; sd 0.73, n=4): 2.81 min
- liver clearance, isoflurane ([5]; sd 2.50, n=3): 18.44 min
- liver clearance, awake ([5]; sd 3.29, n=9): 18.71 min

Molecule: NCCc1cc(O)c(O)cc1O [6-OHDA, 6-hydroxydopamine]
- APO-induced rotations, 1st week [6, 11]: 6.4 ± 2.4 turns/ min
- APO-induced rotations, 3rd week [6, 11]: 11.3±4.3 turns/ min
- DA neurons loss in treated right striatum ([6]; [18F]D6-FP-(+)-DTBZ PET, 4th week): approximately 60%

Molecule: CC1CCN(c2cc(N3CCN(CC[18F])CC3)ccc2NC(=O)c2cc(C#N)c[nH]2)CC1 [[18F]1]
- peak brain uptake in control mice (CSF1R; 5 min post-administration): 3.6 %ID/g tissue
- increase in brain uptake in LPS group (CSF1R; LPS-treated vs control mice): 46%

Molecule: COc1ccc2[nH]cc(C[C@H](N)C(=O)O)c2c1[18F] [[18F]-L-T13, 4-F-5-OMe-tryptophan]
- tumor uptake (IDO1): 9.57±0.26 %ID/g
- tumor/muscle uptake ratio (IDO1): 4.57±0.2

Molecule: COc1ccc(-c2nc([C@@H](C)Sc3nc(N)cc(N)n3)c(C)s2)cc1OCCN1CCOCC1 [TRE-515]
- clinical symptoms ([7]; MOG35-55 and PLP139-151 EAE models): limited clinical symptoms
- side effects ([7]; both MS mouse models): no observable side effects
- plasma levels of deoxycytidine ([7]; mouse, in vivo): increased

B1: 89Zr-dinutuximab: anti-GD2 mAb dinutuximab radiolabeled via DFO (antibody, chains of the INN, looked up, V domains shown)
VH: EVQLLQSGPELEKPGASVMISCKASGSSFTGYNMNWVRQNIGKSLEWIGAIDPYYGGTSYNQKFKGRATLTVDKSSSTAYMHLKSLTSEDSAVYYCVSGMEYWGQGTSVTVSS
VL: EIVMTQSPATLSVSPGERATLSCRSSQSLVHRNGNTYLHWYLQKPGQSPKLLIHKVSNRFSGVPDRFSGSGSGTDFTLKISRVEAEDLGVYFCSQSTHVPPLTFGAGTKLELK
modifications: 89Zr-DFO
- tumor uptake (Disialoganglioside GD2; 4 hours, PET): 6.5 %ID/g
- tumor uptake (peak) (Disialoganglioside GD2; 71 hours, PET): 12 %ID/g
- blood uptake (Disialoganglioside GD2; 170 hours): < 2 %ID/g
- liver uptake (Disialoganglioside GD2; 170 hours): ~ 6 %ID/g
- normal tissues uptake except liver (Disialoganglioside GD2; 170 hours): < 5 %ID/g
- normal tissues uptake (Disialoganglioside GD2; initial): < 11 %ID/g

B2: [89Zr]huOX40mAb: DFO-conjugated human OX40 mAb Ivuxolimab labeled with 89Zr (conjugate, chains of the INN, looked up)
VH: EVQLVESGGGLVQPGGSLRLSCAASGFTFSSYSMNWVRQAPGKGLEWVSYISSSSSTIDYADSVKGRFTISRDNAKNSLYLQMNSLRDEDTAVYYCARESGWYLFDYWGQGTLVTVSS
VL: DIQMTQSPSSLSASVGDRVTITCRASQGISSWLAWYQQKPEKAPKSLIYAASSLQSGVPSRFSGSGSGTDFTLTISSLQPEDFATYYCQQYNSYPPTFGGGTKVEIK
modifications: DFO; 89Zr
- binding to activated (OX40+) vs resting T cells (OX40 [8]): 10.8 fold
- reduction of binding to activated T cells by blocking (OX40 [8]; 25-fold excess cold mAb): 88%
- uptake in HEK293 tumors (OX40 [9]): 2.5 ± 0.7 %ID/g
- binding to OX40+ HEK293 vs parental HEK293 cells (OX40 [10]): 26.8 fold
- reduction of binding to OX40+ HEK293 cells by blocking (OX40 [10]; 25-fold excess cold mAb): 87%
